# Assays:
# [1] = Solubility of finafloxacin in three magnesium chloride-containing solutions at various pH; type: physicochemical; details: for solubility: aqueous with cosolvent or surfactant or cyclodextrin
# [2] = Solubility studies of finafloxacin monohydrochloride in aqueous solution with various salts; type: physicochemical
# From the text: TABLE 1 below summarizes the results of solubility studies using finafloxacin monohydrochloride in aqueous solution with various salts at different concentrations. […] In particular, magnesium salts generated clear, colorless solutions at slightly acidic, physiologically-compatible pH ranges.
# [3] = Solubility studies of fluoroquinolones (0.3%) with ZnCl2, MgCl2 or CaCl2; details: quinolone 0.3%
# [4] = pH 7.4 in 0.1M phosphate buffer; cited from earlier work
# [5] = TABLE 3A magnesium chloride-containing solution, final pH 5.73
# [6] = TABLE 3A magnesium chloride-containing solution, final pH 6.23
# [7] = TABLE 3A magnesium chloride-containing solution, final pH 6.58
# [8] = TABLE 3A magnesium chloride-containing solution, final pH 7.12
# [9] = TABLE 3A magnesium chloride-containing solution, final pH 7.55
# [10] = TABLE 3B magnesium chloride-containing solution, pH 6.08
# [11] = TABLE 3B magnesium chloride-containing solution, pH 6.15
# [12] = TABLE 3B magnesium chloride-containing solution, pH 6.69
# [13] = TABLE 3B magnesium chloride-containing solution, pH 7.29
# [14] = TABLE 3B magnesium chloride-containing solution, pH 7.54
# [15] = TABLE 3C magnesium chloride-containing solution, pH 5.22
# [16] = TABLE 3C magnesium chloride-containing solution, pH 6.19
# [17] = TABLE 3C magnesium chloride-containing solution, pH 6.65
# [18] = TABLE 3C magnesium chloride-containing solution, pH 7.16
# [19] = TABLE 3C magnesium chloride-containing solution, pH 7.67
# [20] = 0.05% MgCl2 5.27 mM + 0.05% ZnCl2 3.67 mM
# [21] = 0.05% MgCl2 5.27 mM + 0.1% ZnCl2 7.34 mM
# [22] = 0.1% MgCl2 10.5 mM + 0.05% ZnCl2 3.67 mM
# [23] = 0.1% MgCl2 10.5 mM + 0.1% ZnCl2 7.3 mM
# [24] = AlCl3 13.5 mM, Conc. (%) 0.180%
# [25] = CaGluconate 17.5 mM, Conc. (%) 0.75%
# [26] = Mg(CH3COO)2 1.3 mM, Conc. (%) 0.019%
# [27] = Mg(CH3COO)2 6.7 mM, Conc. (%) 0.095%
# [28] = Mg(CH3COO)2 13.5 mM, Conc. (%) 0.19%
# [29] = MgCl2 2.45 mM, Conc. (%) 0.023%
# [30] = ZnCl2 13.5 mM, Conc. (%) 0.184%
smiles,measurement,setting,value
"Cl.N#Cc1c(N2C[C@@H]3NCCO[C@H]3C2)c(F)cc2c(=O)c(C(=O)O)cn(C3CC3)c12 [Finafloxacin HCl, finafloxacin monohydrochloride]",Solubility of finafloxacin,[1]; [5],0.404 w/v %
same,Solubility of finafloxacin,[1]; [6],0.727 w/v %
same,Solubility of finafloxacin,[1]; [7],0.638 w/v %
same,Solubility of finafloxacin,[1]; [8],0.944 w/v %
same,Solubility of finafloxacin,[1]; [9],1.244 w/v %
same,Solubility of finafloxacin,[1]; [10],0.316 w/v %
same,Solubility of finafloxacin,[1]; [11],0.355 w/v %
same,Solubility of finafloxacin,[1]; [12],0.628 w/v %
same,Solubility of finafloxacin,[1]; [13],0.915 w/v %
same,Solubility of finafloxacin,[1]; [14],1.140 w/v %
same,Solubility of finafloxacin,[1]; [15],0.130 w/v %
same,Solubility of finafloxacin,[1]; [16],0.216 w/v %
same,Solubility of finafloxacin,[1]; [17],0.346 w/v %
same,Solubility of finafloxacin,[1]; [18],0.501 w/v %
same,Solubility of finafloxacin,[1]; [19],0.921 w/v %
"N#Cc1c(N2C[C@@H]3NCCO[C@H]3C2)c(F)cc2c(=O)c(C(=O)O)cn(C3CC3)c12 [Finafloxacin, 8-cyano-1-cyclopropyl-6-fluoro-7-[(4aS,7aS)-hexahydropyrrolo[3,4-b]-1,4-oxazin-6(2H)-yl]-1,4-dihydro-4-oxo-3-quinoline carboxylic acid]",solubility,[1]; [5],3700 µg/mL
same,solubility,[1]; [6],6660 µg/mL
same,solubility,[1]; [7],5850 µg/mL
same,solubility,[1]; [8],8650 µg/mL
same,solubility,[1]; [9],11400 µg/mL
same,solubility,[1]; [10],2900 µg/mL
same,solubility,[1]; [11],3250 µg/mL
same,solubility,[1]; [12],5760 µg/mL
same,solubility,[1]; [13],8390 µg/mL
same,solubility,[1]; [14],10400 µg/mL
same,solubility,[1]; [15],1190 µg/mL
same,solubility,[1]; [16],1980 µg/mL
same,solubility,[1]; [17],3170 µg/mL
same,solubility,[1]; [18],4590 µg/mL
same,solubility,[1]; [19],8440 µg/mL
same,C.C.S. (clear colorless solution) pH Range,[2]; [20],4.86-5.87
same,Observation,[2]; [20],C.C.S
same,C.C.S. (clear colorless solution) pH Range,[2]; [21],4.62-5.86
same,Observation,[2]; [21],C.C.S
same,C.C.S. (clear colorless solution) pH Range,[2]; [22],5.01-5.75
same,Observation,[2]; [22],C.C.S
same,C.C.S. (clear colorless solution) pH Range,[2]; [23],4.68-5.88
same,Observation,[2]; [23],C.C.S
same,C.C.S. (clear colorless solution) pH Range,"[2]; AlCl3 1.3 mM, Conc. (%) 0.018%",Not Formed
same,Observation,"[2]; AlCl3 1.3 mM, Conc. (%) 0.018%",Suspension at pH 3.7-7.4
same,C.C.S. (clear colorless solution) pH Range,"[2]; AlCl3 6.7 mM, Conc. (%) 0.09%",2.83-7.46
same,Observation,"[2]; AlCl3 6.7 mM, Conc. (%) 0.09%",Pale-yellow→at pH 7.58
same,C.C.S. (clear colorless solution) pH Range,[2]; [24],2.50-7.24
same,Observation,[2]; [24],Pale-yellow → at pH 7.41
same,C.C.S. (clear colorless solution) pH Range,"[2]; CaCl2 1.3 mM, Conc. (%) 0.015%",Not Formed
same,Observation,"[2]; CaCl2 1.3 mM, Conc. (%) 0.015%",Suspension at pH 3.7
same,C.C.S. (clear colorless solution) pH Range,"[2]; CaCl2 6.7 mM, Conc. (%) 0.075%",Not Formed
same,Observation,"[2]; CaCl2 6.7 mM, Conc. (%) 0.075%",Suspension at pH 3.7
same,C.C.S. (clear colorless solution) pH Range,"[2]; CaCl2 13.5 mM, Conc. (%) 0.15%",6.45
same,Observation,"[2]; CaCl2 13.5 mM, Conc. (%) 0.15%",C.C.S
same,C.C.S. (clear colorless solution) pH Range,"[2]; CaCl2 20.0 mM, Conc. (%) 0.22%",6.29-6.39
same,Observation,"[2]; CaCl2 20.0 mM, Conc. (%) 0.22%",C.C.S
same,C.C.S. (clear colorless solution) pH Range,[2]; [25],Not Formed
same,Observation,[2]; [25],Suspension at pH 3.7
same,C.C.S. (clear colorless solution) pH Range,"[2]; CuCl2 1.3 mM, Conc. (%) 0.018%",Not Formed
same,Observation,"[2]; CuCl2 1.3 mM, Conc. (%) 0.018%",Suspension at pH 3.7-7.4
same,C.C.S. (clear colorless solution) pH Range,"[2]; CuCl2 6.7 mM, Conc. (%) 0.09%",5.14-7.26
same,Observation,"[2]; CuCl2 6.7 mM, Conc. (%) 0.09%",Light blue coloration
same,C.C.S. (clear colorless solution) pH Range,"[2]; CuCl2 13.5 mM, Conc. (%) 0.18%",5.77-6.11
same,Observation,"[2]; CuCl2 13.5 mM, Conc. (%) 0.18%",Light blue coloration
same,C.C.S. (clear colorless solution) pH Range,"[2]; KCl 93 mM, Conc. (%) 0.7%",Not Formed
same,Observation,"[2]; KCl 93 mM, Conc. (%) 0.7%",Suspension at pH 3.7-7.4
same,C.C.S. (clear colorless solution) pH Range,[2]; [26],Not Formed
same,Observation,[2]; [26],Suspension at pH 3.7-7.4
same,C.C.S. (clear colorless solution) pH Range,[2]; [27],6.05-7.57
same,Observation,[2]; [27],C.C.S.
same,C.C.S. (clear colorless solution) pH Range,[2]; [28],5.21-8.51
same,Observation,[2]; [28],C.C.S.
same,C.C.S. (clear colorless solution) pH Range,"[2]; MgCl2 1.3 mM, Conc. (%) 0.012%",Not Formed
same,Observation,"[2]; MgCl2 1.3 mM, Conc. (%) 0.012%",Suspension at pH 3.7-7.4
same,C.C.S. (clear colorless solution) pH Range,[2]; [29],Not Formed
same,Observation,[2]; [29],Suspension at pH 3.7-7.4
same,C.C.S. (clear colorless solution) pH Range,"[2]; MgCl2 4.91 mM, Conc. (%) […]",6.68-7.65
same,Observation,"[2]; MgCl2 4.91 mM, Conc. (%) […]",C.C.S
same,C.C.S. (clear colorless solution) pH Range,"[2]; MgCl2 6.7 mM, Conc. (%) 0.064%",6.00-9.84
same,Observation,"[2]; MgCl2 6.7 mM, Conc. (%) 0.064%",C.C.S
same,C.C.S. (clear colorless solution) pH Range,"[2]; MgCl2 13.5 mM, Conc. (%) 0.12%",5.26-9.61
same,Observation,"[2]; MgCl2 13.5 mM, Conc. (%) 0.12%",C.C.S
same,C.C.S. (clear colorless solution) pH Range,"[2]; MgSO4 1.3 mM, Conc. (%) 0.016%",Not Formed
same,Observation,"[2]; MgSO4 1.3 mM, Conc. (%) 0.016%",Suspension at pH 3.7-7.4
same,C.C.S. (clear colorless solution) pH Range,"[2]; MgSO4 6.7 mM, Conc. (%) 0.08%",6.36-9.23
same,Observation,"[2]; MgSO4 6.7 mM, Conc. (%) 0.08%",C.C.S
same,C.C.S. (clear colorless solution) pH Range,"[2]; MgSO4 13.5 mM, Conc. (%) 0.16%",6.29-7.44
same,Observation,"[2]; MgSO4 13.5 mM, Conc. (%) 0.16%",C.C.S
same,C.C.S. (clear colorless solution) pH Range,"[2]; NaCl 13.5 mM, Conc. (%) 0.076%",Not Formed
same,Observation,"[2]; NaCl 13.5 mM, Conc. (%) 0.076%",Suspension at pH 3.7-7.4
same,C.C.S. (clear colorless solution) pH Range,"[2]; NaCl 27 mM, Conc. (%) 0.15%",Not Formed
same,Observation,"[2]; NaCl 27 mM, Conc. (%) 0.15%",Suspension at pH 3.7-7.4
same,C.C.S. (clear colorless solution) pH Range,"[2]; NaCl 120 mM, Conc. (%) 0.79%",Not Formed
same,Observation,"[2]; NaCl 120 mM, Conc. (%) 0.79%",Suspension at pH 3.7-7.4
same,C.C.S. (clear colorless solution) pH Range,"[2]; NaSO4 21.3 mM, Conc. (%) 0.3%",Not Formed
same,Observation,"[2]; NaSO4 21.3 mM, Conc. (%) 0.3%",Suspension at pH 3.7-7.4
same,C.C.S. (clear colorless solution) pH Range,"[2]; ZnCl2 1.3 mM, Conc. (%) 0.018%",Not Formed
same,Observation,"[2]; ZnCl2 1.3 mM, Conc. (%) 0.018%",Suspension at pH 3.7-7.4
same,C.C.S. (clear colorless solution) pH Range,"[2]; ZnCl2 6.7 mM, Conc. (%) 0.09%",4.90-5.47
same,Observation,"[2]; ZnCl2 6.7 mM, Conc. (%) 0.09%",C.C.S
same,C.C.S. (clear colorless solution) pH Range,[2]; [30],4.50-5.55
same,Observation,[2]; [30],C.C.S
same,C.C.S. (clear colorless solution) pH Range,"[2]; ZnCl2 20.0 mM, Conc. (%) 0.27%",5.06-5.87
same,Observation,"[2]; ZnCl2 20.0 mM, Conc. (%) 0.27%",C.C.S
same,C.C.S. (clear colorless solution) pH Range,"[2]; ZnSO4 13.5 mM, Conc. (%) 0.22%",5.65
same,Observation,"[2]; ZnSO4 13.5 mM, Conc. (%) 0.22%",C.C.S
"COc1c(N2CCNC(C)C2)c(F)cc2c(=O)c(C(=O)O)cn(C3CC3)c12 (stereo not shown) [GATIFLOXACIN, gatifloxacin]",C.C.S. (clear colorless solution) pH Range,"[3]; CaCl2 10.0 mM, Conc. (w/v %) 0.08%",7.31-7.55
same,C.C.S. (clear colorless solution) pH Range,"[3]; MgCl2 10.0 mM, Conc. (w/v %) 0.09%",6.97-7.52
same,C.C.S. (clear colorless solution) pH Range,"[3]; ZnCl2 10.0 mM, Conc. (w/v %) 0.13%",6.61-7.31
same,literature-reported aqueous solubility,[4],0.21 w/v %

# Reference: US20150174137A1, “COMPOSITIONS FOR TREATING MICROBIAL INFECTIONS” (ALCON RESEARCH, LTD., priority 2010, published 2015)
